From patent US20090023731A1, “SOLUBLE EPOXIDE HYDROLASE INHIBITORS” (Arete Therapeutics, Inc., priority 2007, published 2009)
Values belong to the compound of their own block, whether it stands above or below them.

Key:
[1] = system: soluble epoxide hydrolase (sEH); assay: Fluorescent assay for mouse and human soluble epoxide hydrolase (CMNPC substrate); assay type: biochemical
Procedure: Recombinant mouse sEH (MsEH) and human sEH (HsEH) were produced in a baculovirus expression system as previously reported. […] The expressed proteins were purified from cell lysate by affinity chromatography. […] Protein concentration was quantified using the Pierce BCA assay using bovine serum albumin as the calibrating standard.
The IC50s for each inhibitor were according to the following procedure:
Bis/Tris HCl 25 mM pH 7.0 containing 0.1 mg/mL of BSA (buffer A) CMNPC at 0.25 mM in DMSO.
Mother solution of enzyme in buffer A (Mouse sEH at 6 μg/mL and Human sEH at 5 μg/mL). Inhibitor dissolved in DMSO at the appropriate concentration.
In a black 96 well plate, fill all the wells with 150 μL of buffer A.
Add 2 μL of DMSO in well A2 and A3, and then add 2 μL of inhibitor solution in A1 and A4 through A12.
Add […] of buffer A in row A, then mix several time and transfer […] to row B. Repeat this operation up to row H. The […] removed from row H is discarded.
Add […] of buffer A in column 1 and 2, then add […] of enzyme solution to column 3 to 12.
Incubate the plate for 5 minutes in the plate reader at 30° C.
During incubation prepare the working solution of substrate by mixing 3.68 mL of buffer A (4×0.920 mL) with 266 μL (2×133 μL) of substrate solution).
The velocities are used to analyze and calculate the IC50s.

- % Inh ([1]; inhibitor conc. 50 nM): 99%
Compound: O=C(Nc1cccc(OCCCN2CCOCC2)c1)NC12CC3CC(CC(C3)C1)C2 [Compound 47, 1-Adamantan-1-yl-3-[3-(3-morpholin-4-yl-propoxy)-phenyl]-urea]

- % Inh ([1]; inhibitor conc. 50 nM): 92%
Compound: O=C(Nc1ccc(F)c(OCCCN2CCOCC2)c1)NC12CC3CC(CC(C3)C1)C2 [Compound 53, 1-Adamantan-1-yl-3-[4-fluoro-3-(3-morpholin-4-yl-propoxy)-phenyl]-urea]

- melting point: 232 to 235 °C
- % Inh ([1]; inhibitor conc. 50 nM): 98%
Compound: O=C(Nc1cccc(OCc2ccccc2)c1)NC12CC3CC(CC(C3)C1)C2 [Compound 57, 1-Adamantan-1-yl-3-(3-benzyloxy-phenyl)-urea]

- % Inh ([1]; inhibitor conc. 500 nM): 81%
Compound: O=C(CNC12CC3CC(CC(C3)C1)C2)Nc1cccc(OCCCN2CCOCC2)c1 [Compound 58, 2-(Adamantan-1-ylamino)-N-[3-(3-morpholin-4-yl-propoxy)-phenyl]-acetamide]

- melting point: 185 to 187 °C
- % Inh ([1]; inhibitor conc. 5000 nM): 99%
Compound: O=C(Nc1ccc(Oc2cccc(C(=O)O)c2)cc1)NC12CC3CC(CC(C3)C1)C2 [Compound 59, 3-(4-(3-Adamantan-1-ylureido)phenoxy)benzoic acid]

- % Inh ([1]; inhibitor conc. 500 nM): 96%
Compound: S=C(Nc1cccc(OCCCN2CCOCC2)c1)NC12CC3CC(CC(C3)C1)C2 [Compound 61]

- melting point: 162 to 166 °C
- % Inh ([1]; inhibitor conc. 2000 nM): 100%
Compound: O=C(Nc1ccc(Oc2ccc(C(=O)O)cc2)cc1)NC12CC3CC(CC(C3)C1)C2 [Compound 65, 4-(4-(3-(adamantyl)ureido)phenoxy)benzoic acid]

- melting point: 152 to 154 °C
Compound: O=C(Nc1cccc(Oc2ccc(C(=O)O)cc2)c1)NC12CC3CC(CC(C3)C1)C2 [Compound 68]

- % Inh ([1]; inhibitor conc. 2000 nM): 100%
Compound: O=C(Nc1ccc(C(F)(F)F)cc1)Nc1cccc(Oc2ccc(C(=O)O)cc2)c1 [Compound 69, 4-(3-(3-(4-(trifluoromethyl)phenyl)ureido)phenoxy)benzoicacid]

- % Inh ([1]; inhibitor conc. 2000 nM): 95%
Compound: O=C(Nc1cccc(Oc2cccc(C(=O)O)c2)c1)NC12CC3CC(CC(C3)C1)C2 [Compound 70, 3-(3-(3-(adamantyl)ureido)phenoxy)benzoicacid]

- % Inh ([1]; inhibitor conc. 200 nM): 97%
Compound: O=C(NCCc1ccc(OCc2ccccc2)cc1)NCC12CC3CC(CC(C3)C1)C2 [Compound 73, 1-(4-(benzyloxy)phenethyl)-3-(adamantylmethyl)urea]

Continued, compound first:

Compound: O=C(Nc1ccc(C(F)(F)F)cc1)Nc1cccc(OCc2ccccc2)c1 [Compound 37, 1-(3-Benzyloxy-phenyl)-3-(4-trifluoromethyl-phenyl)-urea]
- melting point: 208 to 210 °C
- % Inh ([1]; inhibitor conc. 50 nM): 99%

Compound: O=C(Nc1ccc(F)cc1)Nc1cccc(OCc2ccccc2)c1 [Compound 38, 1-(3-Benzyloxy-phenyl)-3-(4-fluoro-phenyl)-urea]
- melting point: 187 to 189 °C
- % Inh ([1]; inhibitor conc. 50 nM): 93%

Compound: O=C(Nc1ccc(Oc2ccccc2)cc1)Nc1ccc(C(F)(F)F)cc1 [Compound 39, 1-(4-Phenoxy-phenyl)-3-(4-trifluoromethyl-phenyl)-urea]
- melting point: 211 to 213 °C
- % Inh ([1]; inhibitor conc. 50 nM): 90%

Compound: O=C(Nc1ccc(C(F)(F)F)cc1)Nc1cccc(Oc2ccccc2)c1 [Compound 40, 1-(3-Phenoxy-phenyl)-3-(4-trifluoromethyl-phenyl)-urea]
- melting point: 178 to 181 °C
- % Inh ([1]; inhibitor conc. 50 nM): 96%

Compound: CC(C)(C)CC(=O)Nc1cccc(OCCCN2CCOCC2)c1 [Compound 44, 3,3-Dimethyl-N-[3-(3-morpholin-4-yl-propoxy)-phenyl]-butyramide]
- % Inh ([1]; inhibitor conc. 5000 nM): 70%

Compound: O=C(Nc1ccc(OCCCN2CCOCC2)cc1)NC1CCCCC1 [Compound 45, 1-Cyclohexyl-3-[4-(3-morpholin-4-yl-propoxy)-phenyl]-urea]
- % Inh ([1]; inhibitor conc. 50 nM): 79%

Compound: O=C(CC12CC3CC(CC(C3)C1)C2)Nc1ccc(OCCCN2CCOCC2)cc1 [Compound 46, 2-Adamantan-1-yl-N-[4-(3-morpholin-4-yl-propoxy)-phenyl]-acetamide]
- % Inh ([1]; inhibitor conc. 50 nM): 93%

Compound: O=C(NC1CCCC(OCCCN2CCOCC2)C1)NC12CC3CC(CC(C3)C1)C2 (stereo not shown) [Compound 48, 1-Adamantan-1-yl-3-[3-(3-morpholin-4-yl-propoxy)-cyclohexyl]-urea]
- % Inh ([1]; inhibitor conc. 50 nM): 94%

Compound: O=C(CC12CC3CC(CC(C3)C1)C2)NC1CCCC(OCCCN2CCOCC2)C1 (stereo not shown) [Compound 49, 2-Adamantan-1-yl-N-[3-(3-morpholin-4-yl-propoxy)-cyclohexyl]-acetamide]
- % Inh ([1]; inhibitor conc. 50 nM): 79%

Compound: O=C(CC12CC3CC(CC(C3)C1)C2)NC1CCC(OCCCN2CCOCC2)CC1 (stereo not shown) [Compound 50, 2-Adamantan-1-yl-N-[4-(3-morpholin-4-yl-propoxy)-cyclohexyl]-acetamide]
- % Inh ([1]; inhibitor conc. 500 nM): 85%

Compound: O=C(CC1CCCCC1)Nc1cccc(OCCCN2CCOCC2)c1 [Compound 51, 2-Cyclohexyl-N-[3-(3-morpholin-4-yl-propoxy)-phenyl]-acetamide]
- % Inh ([1]; inhibitor conc. 50 nM): 61%

Compound: O=C(CC12CC3CC(CC(C3)C1)C2)Nc1ccc(F)c(OCCCN2CCOCC2)c1 [Compound 52, 2-Adamantan-1-yl-N-[4-fluoro-3-(3-morpholin-4-yl-propoxy)-phenyl]-acetamide]
- % Inh ([1]; inhibitor conc. 500 nM): 93%

Compound: O=C(Nc1ccc(F)c(OCCCN2CCOCC2)c1)NC1CCCCC1 [Compound 54, 1-Cyclohexyl-3-[4-fluoro-3-(3-morpholin-4-yl-propoxy)-phenyl]-urea]
- % Inh ([1]; inhibitor conc. 50 nM): 83%

Compound: O=C(Nc1cccc(OCCCN2CCOCC2)c1)C12CC3CC(CC(C3)C1)C2 [Compound 55, Adamantane-1-carboxylicacid [3-(3-morpholin-4-yl-propoxy)-phenyl]-amide]
- % Inh ([1]; inhibitor conc. 5000 nM): 90%

Compound: O=C(Nc1cccc(OCCCN2CCOCC2)c1)C1CCCCC1 [Compound 56, Cyclohexanecarboxylicacid [3-(3-morpholin-4-yl-propoxy)-phenyl]-amide]
- % Inh ([1]; inhibitor conc. 5000 nM): 94%

Compound: O=C(Nc1ccc(Oc2cccc(C(=O)O)c2)cc1)Nc1ccc(C(F)(F)F)cc1 [Compound 60, 3-(4-(3-(4-(trifluoromethyl)phenyl)ureido)phenoxy)benzoic acid]
- % Inh ([1]; inhibitor conc. 500 nM): 92%

Compound: O=C(Nc1ccc(Oc2ccc(C(=O)O)cc2)cc1)Nc1ccc(OC(F)(F)F)cc1 [Compound 64, 4-(4-(3-(4-(trifluoromethoxy)phenyl)ureido)phenoxy)benzoic acid]
- % Inh ([1]; inhibitor conc. 2000 nM): 100%

Compound: O=C(Nc1ccc(Oc2ccc(C(=O)O)cc2)cc1)Nc1ccc(C(F)(F)F)cc1 [Compound 66, 4-(4-(3-(4-(trifluoromethyl)phenyl)ureido)phenoxy)benzoic acid]
- melting point: > 400 °C
- % Inh ([1]; inhibitor conc. 2000 nM): 100%

Compound: O=C(Nc1ccc(Oc2ccc(C(=O)O)cc2)cc1)Nc1cccc(C(F)(F)F)c1 [Compound 67, 4-(4-(3-(3-(trifluoromethyl)phenyl)ureido)phenoxy)benzoic acid]
- melting point: 318 °C
- % Inh ([1]; inhibitor conc. 2000 nM): 99%

Compound: O=C(Nc1ccc(C(F)(F)F)cc1)Nc1cccc(Oc2cccc(C(=O)O)c2)c1 [Compound 71, 3-(3-(3-(4-(trifluoromethyl)phenyl)ureido)phenoxy)benzoicacid]
- % Inh ([1]; inhibitor conc. 2000 nM): 98%

Compound: O=C(NCCc1ccc(OCc2ccccc2)cc1)NCCC12CC3CC(CC(C3)C1)C2 [Compound 72, 1-(4-(benzyloxy)phenethyl)-3-(adamantylethyl)urea]
- % Inh ([1]; inhibitor conc. 200 nM): 89%

Compound: O=C(Nc1ccc(OC(F)(F)F)cc1)N[C@H]1CC[C@H](Oc2ccc(C(=O)O)cc2)CC1 [Compound 74, 4-((1r,4r)-4-(3-(4-(trifluoromethoxy)phenyl)ureido)cyclohexyloxy)benzoic acid]
- % Inh ([1]; inhibitor conc. 2000 nM): 100%

Compound: O=C(Nc1ccc(C(F)(F)F)cc1)N[C@H]1CC[C@H](Oc2ccc(C(=O)O)cc2)CC1 [Compound 75]
- % Inh ([1]; inhibitor conc. 2000 nM): 95%
